Results on two compounds are retold here after patent US20070183995A1, “Compounds useful as agonists of A2A adenosine receptors, cosmetic compositions with A2A agonists and a method for using the same” (Conopco, Inc., d/b/a Unilever, priority 2006, published 2007).

For this assay, the system named is Melanoderm cultures (melanogenesis). Kind of assay: Melanoderm human skin equivalent lightening test (Hunter Lab L value). In kind it is cell-based. Conditions: for Average L Value / L Value Range: 3 micromolar in media, dosed 10 times in 3 weeks, Hunter Lab L value, Minolta CR-10 chromameter; for Average L Value: averaged; for L Value Range: triplicate; for ΔL: difference in average Hunter Lab L value, treated vs untreated control cultures, 3 micromolar, 3 weeks. An excerpt: As used herein, ΔL is defined to mean the difference in Hunter Lab L values when comparing three, three (3) week old Mattek Melanoderm cultures that have not been treated with a composition comprising an agonist of A2A receptors to three, three (3) week old Mattek melanoderm cultures that have been treated with a composition comprising an agonist of A2A receptors wherein treated means: • (a) placing the melanoderm culture within a six (6) well tissue culture dish and set about 0.3 cm off of the tissue culture dish; • (b) subjecting the melanoderm culture to a 3 micromolar composition having an agonist of A2A adenosine receptors, the composition being one prepared from a 10 millimolar solution of A2A agonist and carrier (e.g., dimethyl sulfoxide) having been diluted with Dulbecco's Modified Eagle Media; and • (c) comparing the treated and untreated cultures by obtaining average L values for each with a Minolta CR-10 chromameter.
Commercially available human skin equivalents (Melanoderm from Mattek) were obtained for testing the impact of agonists of A2A adenosine receptors on melanogenesis. Solutions having a final concentration of three (3) micromolar were prepared from a 10 millimolar dimethyl sulfoxide stock solution and dosed ten (10) times in a three (3) week period into the media of the melanoderm cultures. The media consisted of commercially available basal Dulbecco's Modified Eagles media, prepared and treated in the manner set forth in the manufacture's instructions. For long term maintenance of the Melanoderms, the basal media was supplemented with bFGF and alpha MSH to stimulate melanocyte growth and melanogenesis. Each treatment condition was done in triplicate and three (3) sets were made for each treatment, as well as for a control (culture not treated with the agonist). The cultures were maintained at a temperature of about 37° C. and stored in a humidified, 5% CO2 incubator during the dosing period, but removed while being dosed.
After a three (3) week period, Hunter lab L value readings were taken for each condition (with a.Minolta CR-10 chromameter) and then averaged.

For `CCNC(=O)[C@H]1O[C@@H](n2cnc3c(N)nc(NCCc4ccc(CCC(=O)O)cc4)nc32)[C@H](O)[C@@H]1O` [Agonist 1, 2-para(2-carboxyethyl)phenethylamino-5′-N-ethyl carboxamido adenosine], the “Average L Value” stood at 31.9, the “L Value Range” value is given as 30.3-33.3 and the ΔL came to 1.7.

As for `Nc1nc(Nc2ccccc2)nc2c1ncn2[C@@H]1O[C@H](CO)[C@@H](O)[C@H]1O` [Agonist 2, phenylaminoadenosine], the “Average L Value” was 43.8, the “L Value Range” value is 43.2-44.2 and the ΔL amounted to 5.2.
